The record followed here is patent US20080188469A1, “VACCINATION” (Glaxo Group Limited, priority 2002, published 2008).

The assay deals with antigen specific cytokine producing cells in splenocytes. The experiment in a line: Imiquimod given with particle-mediated DNA vaccination (pVAC1.ova.cyt) of mice; cytokine producing splenocytes by ELISPOT. The format is in vivo, C57B1/6 mice. The conditions noted are these: imiquimod 30 mg/kg, single subcutaneous injection at the immunisation site, immediately following vaccination.

Procedure: To examine whether the timing of imiquimod administration could affect the numbers of antigen specific cytokine producing cells in splenocytes pVAC1.ova.cyt (prepared according to example 1) was administered by particle mediated gene transfer (0.05 μg/cartridge) into the skin of mice.
If given, immediately following vaccination imiquimod (prepared as a suspension in vehicle which comprised 0.3% (w/v) methylcellulose and 0.1% (v/v) Tween in sterile water) was administered by a single subcutaneous injection (0.05 ml/10 g body weight formulated to provide a dose of 30 mg/kg)) at the immunisation site. Plasmid and imiquimod controls were empty vector (pVAC1) and vehicle, respectively.
All mice received pVAC1. ova.cyt or empty vehicle pVAC1 at day 0 and week 4. One group of mice received imiquimod at day 0 only (Im prime), a second group of mice received imiquimod at week 4 only (Im boost) and another group received imiquimod at day 0 and week 4 (Im pr+boost).
At day 12 spl enocytes were collected and IFN-γ and IL-2 producing cells were measured by ELISPOT.

With `CC(C)Cn1cnc2c(N)nc3ccccc3c21` [Imiquimod, imiquimod], the “Magnitude of the cytotoxic T cell response to a nucleic acid vaccine” value is listed as “Increases the Magnitude of the Cytotoxic T Cell Response”.
